± gives the standard deviation of the averaged measurements.
Tests used:
Test in all cases: level (log10 ratio to DMSO vehicle control); higher = higher biomarker level / cell amount than vehicle control
Conditions in all cases: in DMSO
1-(Perfluorohexyl)octane = compound: CCCCCCCCC(F)(F)C(F)(F)C(F)(F)C(F)(F)C(F)(F)C(F)(F)F [1-(Perfluorohexyl)octane]
Method: (§1)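 BioMAP Diversity Plus panel of 12 human primary cell co-culture systems (3C, 4H, LPS, SAg, BT, BF4T, BE3C, CASM3C, HDF3CGF, KF3CT, MyoF, Mphg). Compounds were added 1 h before stimulation and left for 24 h (MyoF 48 h; BT 72 h for soluble read-outs or 6 d for IgG). Biomarkers were read by ELISA, cytotoxicity by SRB, PBMC viability and proliferation by Alamar Blue. Each well value was divided by the mean of 8 DMSO control wells on the same plate and log10 transformed; duplicate blinded samples were tested at 4 concentrations.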

Azathioprine = compound: Cn1cnc([N+](=O)[O-])c1Sc1ncnc2[nH]cnc12 [Azathioprine]
Method: as §1

[1] = compound: FC(F)(F)C(F)(F)C(F)(F)C(F)(F)C(F)(F)C(F)(F)C(F)(F)CCI [1-Iodo-1H,1H,2H,2H-perfluorononane]
Method: as §1

Perfluorooctanamide = compound: NC(=O)C(F)(F)C(F)(F)C(F)(F)C(F)(F)C(F)(F)C(F)(F)C(F)(F)F [Perfluorooctanamide]
Method: as §1

[2] = compound: O=C(O)C(F)(F)C(F)(F)C(F)(F)C(F)(F)C(F)(F)C(F)(F)C(F)(F)C(F)(F)Cl [9-Chloro-perfluorononanoic acid]
Method: as §1

[3] = compound: O=C(O)C(F)(F)OC(F)(F)C(F)(F)OC(F)(F)C(F)(F)C(F)(F)C(F)(F)F [Perfluoro-3,6-dioxadecanoic acid]
Method: as §1

[4] = compound: O=S(=O)(O)C(F)(F)C(F)(F)C(F)(F)C(F)(F)C(F)(F)C(F)(F)C(F)(F)C(F)(F)F [Perfluorooctanesulfonic acid]
Method: as §1

| Test System | level (log10) (1-(Perfluorohexyl)octane; 6700 nM) | level (log10) (1-(Perfluorohexyl)octane; 20000 nM) | level (log10) (Azathioprine; 1400 nM) | level (log10) (Azathioprine; 4200 nM) | level (log10) (Azathioprine; 13000 nM) | level (log10) (Azathioprine; 38000 nM) | level (log10) ([1]; 6700 nM) | level (log10) ([1]; 20000 nM) | level (log10) (Perfluorooctanamide; 6700 nM) | level (log10) (Perfluorooctanamide; 20000 nM) | level (log10) (Perfluorooctanamide; 60000 nM) | level (log10) ([2]; 6700 nM) | level (log10) ([2]; 20000 nM) | level (log10) ([3]; 6700 nM) | level (log10) ([3]; 20000 nM) | level (log10) ([3]; 60000 nM) | level (log10) ([4]; 6700 nM) | level (log10) ([4]; 20000 nM) | level (log10) ([4]; 60000 nM) |
| --- | --- | --- | --- | --- | --- | --- | --- | --- | --- | --- | --- | --- | --- | --- | --- | --- | --- | --- | --- |
| CASM3C:SRB | -0.0025 ± 0.0035 | -0.0085 ± 0.00071 | 0.0015 ± 0.0092 | 0.003 ± 0.0057 | -0.013 ± 0.0014 | -0.0365 ± 0.0078 | -0.0025 ± 0.0021 | -0.0015 ± 0.0064 | 0 ± 0.0071 | -0.002 ± 0.0014 | -0.003 ± 0.0014 | -0.001 ± 0.0028 | 0.0045 ± 0.0078 | 0.003 ± 0.0071 | -0.0025 ± 0.0092 | -0.0005 ± 0.0092 | 0.003 ± 0.0042 | 0.0005 ± 0.0064 | 0.0095 ± 0.011 |
| KF3CT:CXCL10/IP-10 | -0.0055 ± 0.018 | -0.011 ± 0.0099 | 0.0135 ± 0.00071 | -0.0035 ± 0.0021 | -0.0105 ± 0.011 | -0.0035 ± 0.019 | -0.0065 ± 0.005 | -0.0235 ± 0.0092 | 0.0285 ± 0.036 | 0.0365 ± 0.037 | 0.0365 ± 0.016 | -0.0235 ± 0.0035 | -0.0715 ± 0.0092 | -0.022 ± 0.0042 | -0.0335 ± 0.011 | -0.113 ± 0.028 | -0.012 ± 0.02 | -0.0065 ± 0.03 | -0.015 ± 0.013 |
| MyoF:TIMP-1 | -0.0265 ± 0.015 | -0.0465 ± 0.023 | -0.0225 ± 0.04 | -0.056 ± 0.057 | 0.013 ± 0.068 | 0.016 ± 0.071 | -0.002 ± 0.054 | 0.0165 ± 0.042 | -0.016 ± 0.014 | 0.0075 ± 0.012 | -0.0375 ± 0.0021 | -0.0445 ± 0.063 | -0.006 ± 0.057 | 0.044 ± 0.03 | 0.174 ± 0.031 | 0.164 ± 0.0014 | -0.002 ± 0.03 | 0.003 ± 0.0071 | 0.102 ± 0.0021 |
| CASM3C:CD141/Thrombomodulin | -0.0145 ± 0.00071 | -0.0165 ± 0.03 | -0.004 ± 0.011 | -0.057 ± 0.035 | -0.043 ± 0.025 | -0.0405 ± 0.1 | 0.0135 ± 0.0035 | 0.0065 ± 0.03 | -0.0225 ± 0.021 | 0.0155 ± 0.0021 | 0.015 ± 0.0071 | -0.0175 ± 0.022 | -0.0225 ± 0.025 | -0.022 | -0.0225 ± 0.00071 | 0.0315 ± 0.046 | -0.007 ± 0.0085 | -0.0115 ± 0.0078 | -0.017 ± 0.031 |
| KF3CT:CCL2/MCP-1 | 0.0005 ± 0.023 | 0.036 ± 0.033 | -0.0045 ± 0.0092 | -0.008 ± 0.0099 | -0.0335 ± 0.015 | -0.015 ± 0.0014 | 0.01 ± 0.03 | 0.0795 ± 0.07 | -0.011 ± 0.017 | -0.034 ± 0.031 | -0.091 ± 0.0028 | 0.004 ± 0.023 | 0.036 ± 0.035 | -0.0115 ± 0.018 | -0.014 ± 0.0071 | -0.08 ± 0.0042 | -0.044 ± 0.017 | -0.0205 ± 0.0078 | 0.0005 ± 0.00071 |
| HDF3CGF:PAI-I | 0.0005 ± 0.016 | 0.0165 ± 0.0021 | 0.022 ± 0.054 | -0.015 ± 0.037 | -0.0545 ± 0.04 | -0.198 ± 0.021 | 0.0075 ± 0.023 | -0.0095 ± 0.032 | -0.016 ± 0.013 | -0.03 ± 0.0099 | -0.0235 ± 0.0078 | 0.0685 ± 0.033 | 0.0245 ± 0.015 | 0.0225 ± 0.013 | 0.0375 ± 0.0021 | 0.045 ± 0.024 | 0.006 | 0.0125 ± 0.011 | -0.0015 ± 0.025 |
| CASM3C:CD142/Tissue Factor | -0.0265 ± 0.028 | -0.0295 ± 0.005 | -0.0115 ± 0.015 | -0.026 ± 0.034 | -0.0345 ± 0.021 | -0.0295 ± 0.025 | 0.0155 ± 0.049 | -0.055 ± 0.0028 | -0.0085 ± 0.046 | -0.0095 ± 0.0064 | -0.003 ± 0.051 | -0.017 ± 0.011 | 0.0055 ± 0.0064 | 0.001 | -0.008 ± 0.0042 | 0.0105 ± 0.052 | -0.035 ± 0.02 | -0.033 ± 0.048 | -0.0525 ± 0.09 |
| HDF3CGF:EGFR | -0.007 ± 0.0028 | 0.0125 ± 0.005 | -0.006 ± 0.0014 | -0.0565 ± 0.076 | -0.05 ± 0.061 | -0.011 ± 0.1 | 0.016 | 0.0295 ± 0.023 | 0.008 ± 0.013 | 0.0125 ± 0.015 | 0.0375 ± 0.042 | -0.135 ± 0.099 | -0.2 ± 0.054 | -0.0005 ± 0.0064 | -0.0815 ± 0.026 | -0.135 ± 0.016 | -0.0205 ± 0.0064 | -0.0495 ± 0.043 | -0.04 ± 0.018 |
| lMphg:CXCL8/IL-8 | -0.0215 ± 0.0078 | 0.022 ± 0.02 | -0.0045 ± 0.047 | -0.042 ± 0.021 | 0.0375 ± 0.0064 | 0.0825 ± 0.019 | 0.007 ± 0.013 | 0.0695 ± 0.0078 | 0.013 ± 0.028 | 0.0285 ± 0.012 | 0.031 ± 0.042 | -0.0145 ± 0.0078 | 0.0115 ± 0.025 | 0.01 ± 0.0057 | 0.0595 ± 0.025 | 0.0695 ± 0.021 | -0.0385 ± 0.018 | -0.003 ± 0.025 | 0.0585 ± 0.1 |
| CASM3C:IL-6 | -0.019 ± 0.031 | 0.0205 ± 0.023 | 0.011 ± 0.051 | -0.045 ± 0.0057 | -0.051 ± 0.0085 | -0.042 ± 0.072 | -0.0105 ± 0.013 | 0.0315 ± 0.056 | 0.0435 ± 0.036 | -0.0225 ± 0.015 | 0.008 ± 0.023 | -0.0115 ± 0.00071 | -0.0325 ± 0.019 | -0.0205 ± 0.005 | -0.0205 ± 0.0021 | -0.0085 ± 0.03 | -0.0375 ± 0.0078 | -0.0465 ± 0.005 | -0.061 ± 0.099 |
